The test system of the assay is Plasmodium falciparum. As to the kind of experiment: GSK_TCMDC: Inhibition of Plasmodium falciparum 3D7 in whole erythrocytes, using parasite LDH activity as an index of growth. The assay is classed as functional, organism-based. Conditions: Plasmodium falciparum, 3D7.

SMILES strings stand for the structures.

`COc1ccc(CNCc2ccc(-c3cccc(-c4nc5cc(C(F)(F)F)ccc5[nH]4)c3)cc2)cc1`: the XC50 was 0.151 µM. Take `Cc1cc(F)ccc1-c1nc(NCCCNCCc2ccccc2)nc2c1ccc(=O)n2-c1c(F)cccc1F`: the XC50 came out at 0.186 µM. Next, `Cc1ccc(NC(=O)Nc2ccc(Cl)c(C(F)(F)F)c2)cc1-c1ccc(C(=O)Nc2ccncc2)cc1`: 0.264 µM; `CC(=O)Nc1cccc(-c2cn(-c3ccc(OCc4cccc(F)c4)c(Cl)c3)c3ncncc23)c1`: 0.0709 µM. With `Cc1cc(-c2cnc(N)c(-c3ccc(N4CCN(C)CC4)nc3)c2)cc(C)c1O` the figure was 1.4 µM; with `Cc1ccc(NC(=O)c2ccc(CN3CCCN(Cc4cccc(C#N)c4)CC3)cc2)cc1F`, 0.592 µM. `COc1ccc(C(=O)C2CCN(CCCCNC(=O)c3ccc(NC(=O)c4ccc(Cl)cc4)cc3)CC2)c(OC)c1`: the XC50 turned out to be 0.772 µM. With `O=C1Nc2cccc3c2C1(CCCCCN1CCC(c2c[nH]c4ccncc24)CC1)CCC3` (centres undefined) the figure was 0.99 µM; with `NCC1CCCN1Cc1ccc(-c2ccc(-c3nc4cc(F)ccc4[nH]3)cc2)cc1` (centres undefined), 0.926 µM; with `CCCCN(CCCC)CCCN(CCCN(CCCC)CCCC)c1cc(C)nc(Nc2ccc3cc(Br)ccc3c2)n1`, 0.32 µM. Next, `OC(CNCc1ccccc1OCc1ccccc1)c1cccc(Cl)c1` (centres undefined): 0.219 µM; `Cn1cncc1CNCc1ccc(-c2cccc(-c3nc4ccccc4[nH]3)c2)cc1`: 0.234 µM; `COc1ccc(CCN(C)CCOc2ccc(NC(=O)c3cccc4cc5ccccc5nc34)cc2)cc1OC`: 0.68 µM. With `COc1cccc(NC(=O)NC2CCN(CCCCCNC(=O)/C=C/c3ccc(Cl)c(Cl)c3)CC2)c1` the figure was 0.777 µM. In turn, `Cc1nc(-c2cccc(Nc3nccc(NCC(O)c4cccc(C(F)(F)F)c4)n3)c2)cs1` (centres undefined) displayed an XC50 of 0.627 µM. With `COc1ccccc1N1CCN(C(C(=O)NCc2ccc3c(c2)OCO3)c2ccc3c(c2)OCCCO3)CC1` (centres undefined) the figure was 1.12 µM. With `O=C(NC1CCC(N2CCC3(CC2)C(=O)NCN3c2ccccc2)CC1)c1cc2ccccc2[nH]1` (centres undefined) the figure was 0.679 µM; with `O=c1cc(NCCCNCc2[nH]c3cc(Cl)cc(Cl)c3c2Cn2cccn2)[nH]c2ccccc12`, 0.972 µM.

On to `Cc1cc(O)cc2c(C3CCN(CC4CCC(NC(=O)/C=C/c5ccccc5Cl)CC4)CC3)c[nH]c12` (centres undefined), for which the XC50 came to 0.9 µM. As to `CC[C@H]1CN2CC[C@H]1C[C@H]2[C@H](O)c1ccnc2ccc(O)cc12`, the XC50 stood at 0.643 µM. Next, `COc1ccccc1CCNc1nc(C)cc(N[C@@H](CC(C)C)C(=O)NCc2cccs2)n1`: 0.793 µM. For the molecule `COc1ccc(CNCCc2cccs2)cc1-c1ccc(S(=O)(=O)NCCN2CCCC2)cc1`, the XC50 was found to be 0.655 µM. `C[C@@]12C[C@@H](Nc3nc(NCCc4ccc(O)cc4)nc(N4CCNCC4)n3)C[C@@H](C1)c1cccc(Cl)c1O2` gave an XC50 of 1.32 µM. Turning to `Cc1nc(Nc2ccc(F)cc2)nc(N2CCc3cc(O)ccc3C2C)c1C` (centres undefined), the XC50 came out at 0.754 µM. With `Nc1nccc2ccc(-c3ccc4nccn4c3)cc12` the figure was 0.101 µM. Next, `NS(=O)(=O)c1cccc(-c2ccc3ncc(N4CCOCC4)nc3c2)c1`: 0.987 µM. As for `CN(C)CCN(C)Cc1ccc(-c2ccc3c(Nc4ccc(Oc5ccccn5)cc4)ccnc3c2)o1`, the XC50 came out at 0.424 µM. With `O=C(CCCCCCc1ccccc1)Nc1ccc2nc3c(c(NCc4ccccc4)c2c1)CCCC3` the figure was 0.358 µM; with `CCCc1cc(Cc2cnc(N)nc2N)cc(CCC)c1O`, 0.277 µM.

`CCN1CCN(c2cc(C)c3cc(NC(=O)c4cccc([N+](=O)[O-])c4)ccc3n2)CC1` came in with an XC50 of 0.524 µM.

Consider `Cc1cc(OCCCN2CCC(NS(=O)(=O)c3cc(Br)c(Cl)s3)CC2)c2ccccc2n1`, for which the XC50 was found to be 0.851 µM. `Cc1cc(=O)[nH]c2cc(Nc3ccnc(Nc4cccc(C(N)=O)c4)n3)ccc12` registered an XC50 of 1.52 µM. Next, `COc1cc(-c2cc(-c3ccc(S(C)(=O)=O)cc3)cnc2N)ccc1O`: 0.101 µM; `COc1ccc2nccc([C@@H](O)CN3CCC(NCCOc4ccccc4C(F)(F)F)CC3)c2c1`: 0.753 µM.

Source of the values: ChEMBL document CHEMBL1157539, “Thousands of chemical starting points for antimalarial lead identification” (Nature, 2010).
